Where a name gives a salt, the structure may show the parent alone.
Legend:
[1] = target: Ras GEF SOS (Son of Sevenless) (Homo sapiens, UniProt Q07889); assay: SOS-mediated nucleotide exchange on Ras (BODIPY-GDP fluorescence); type: biochemical; conditions: SOS-mediated exchange of BODIPY-GDP for GTP on Ras
Method: Compounds of the present invention were tested for their ability to modify the rate at which Ras exchanges a labeled nucleotide guanosine diphosphate (GDP) analog for guanosine triphosphate (GTP). Briefly, test compounds, then GTP and the Ras GEF SOS (Son of Sevenless) are added to a buffered solution containing Ras protein loaded with BODIPY-GDP. Changes in fluoresence indicating exchange of the labeled GDP for GTP are monitored over time. Raw fluorescence data was fit to a single exponential decay function and derived rates were plotted as mean values. EC50 values were calculated by plotting mean derived rates as a function of compound concentration and fit using a four-parameter dose-response curve. This assay is performed in a method analogous to the assay disclosed in: Burns, M. C.; Sun, Q.; Daniels, R. N.; Camper, D. V.; Kennedy, J. P.; Phan, J.; Olejniczak, E. O.; Lee, T.; Waterson, A. G.; Rossanese, O. W.; Fesik, S. W. “Approach for targeting Ras with small molecules that activate SOS-mediated nucleotide exchange” Proc. Natl. Acad. Sci. 2014; 11(9): 3401-3406. PMCID: PMC3948241.

[2] = target: T1, Son of Sevenless (SOS) (Homo sapiens, UniProt Q07889); assay: Binding to SOS, fluorescence polarization anisotropy (FPA) probe displacement; conditions: displacement of FITC-conjugated probe (Example 285), affinity calculated from IC50
T1 sequence (Q07889 564-1049 limits assumed): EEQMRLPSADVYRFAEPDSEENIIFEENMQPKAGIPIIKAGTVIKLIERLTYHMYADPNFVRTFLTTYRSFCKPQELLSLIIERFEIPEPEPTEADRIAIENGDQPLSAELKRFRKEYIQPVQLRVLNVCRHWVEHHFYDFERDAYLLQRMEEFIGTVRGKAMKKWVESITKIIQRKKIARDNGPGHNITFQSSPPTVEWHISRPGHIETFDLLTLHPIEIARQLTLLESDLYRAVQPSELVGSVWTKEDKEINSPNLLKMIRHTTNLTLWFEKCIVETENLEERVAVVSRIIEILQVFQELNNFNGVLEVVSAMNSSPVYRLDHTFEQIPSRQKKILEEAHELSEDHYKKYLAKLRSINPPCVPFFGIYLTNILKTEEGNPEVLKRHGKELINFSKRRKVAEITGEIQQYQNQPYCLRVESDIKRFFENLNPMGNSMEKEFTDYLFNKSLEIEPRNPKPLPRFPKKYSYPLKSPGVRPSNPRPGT
Method: Compounds of the present invention were tested for their ability to bind to the Ras guanine exchange factor (GEF) Son of Sevenless (SOS). Binding to SOS was measured using a Fluorescence polarization anisotropy (FPA) assay that assesses the ability of a test compound to displace a fluorescent FITC-conjugated compound (Example 285). Briefly, the labeled probe compound is incubated with SOS in buffer. Changes in anisotropy indicative of displacement of the labeled probe for a test compound are assessed over a dose range of test compound. Data was analyzed by plotting fluorescence anisotropy values as a function of compound concentration. IC50 values were determined using a four-parameter dose-response (variable slope) and binding affinities were calculated from this IC50 value. This assay is performed in a method analogous to the assay disclosed in: Burns, M. C.; Sun, Q.; Daniels, R. N.; Camper, D. V.; Kennedy, J. P.; Phan, J.; Olejniczak, E. O.; Lee, T.; Waterson, A. G.; Rossanese, O. W.; Fesik, S. W. “Approach for targeting Ras with small molecules that activate SOS-mediated nucleotide exchange” Proc. Natl. Acad. Sci. 2014; 11(9): 3401-3406. PMCID: PMC3948241.

Chain of Ras GEF SOS (Son of Sevenless) (P01112 1-166 partner limits assumed, one chain of several): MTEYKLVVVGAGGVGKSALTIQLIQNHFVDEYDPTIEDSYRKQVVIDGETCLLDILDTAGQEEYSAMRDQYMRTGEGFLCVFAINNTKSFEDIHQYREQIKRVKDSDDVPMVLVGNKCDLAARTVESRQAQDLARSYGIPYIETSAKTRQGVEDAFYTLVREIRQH

Row | Structure (SMILES) | EC50 [1] | Ki [2]
1 | Cc1cc(Cn2c(N3CCNCC3)nc3c(C#Cc4ccccc4)cc(Cl)cc32)cc(C)c1F [Example 123, 6-chloro-1-(4-fluoro-3,5-dimethylbenzyl)-4-(phenylethynyl)-2-(piperazin-1-yl)-1H-benzo[d]imidazole trifluoroacetate] | 1 to 5 µM | 1 to 5 µM
2 | Cc1cc(N2CCN(C)CC2)c2nc(N3CCNCC3)n(Cc3cc(C)c(F)c(C)c3)c2c1 [Example 322, 1-(4-fluoro-3,5-dimethylbenzyl)-6-methyl-4-(4-methylpiperazin-1-yl)-2-(piperazin-1-yl)-1H-benzo[d]imidazole] | < 1 µM | < 0.5 µM
3 | Cc1cc2nc(N3CCNCC3)n(Cc3cc(C)c(F)c(C)c3)c2cc1C [Example 41, 1-(4-fluoro-3,5-dimethylbenzyl)-5,6-dimethyl-2-(piperazin-1-yl)-1H-benzo[d]imidazole trifluoroacetate] | 1 to 5 µM | > 5 µM
4 | Fc1ccc(Cn2c(N3CCNCC3)nc3ccc(Cl)cc32)cc1Cl [Example 73, 6-chloro-1-(3-chloro-4-fluorobenzyl)-2-(piperazin-1-yl)-1H-benzo[d]imidazole trifluoroacetate] | < 1 µM | 0.5 to 1 µM
5 | CC(C)n1nccc1-c1cc(Cl)cc2c1nc(N1CCNCC1)n2Cc1ccc(F)c(Cl)c1 [Example 176, 6-chloro-1-(3-chloro-4-fluorobenzyl)-4-(1-isopropyl-1H-pyrazol-5-yl)-2-(piperazin-1-yl)-1H-benzo[d]imidazole trifluoroacetate] | 1 to 5 µM | < 0.5 µM
6 | Cc1cc(Cn2c(N3CCNCC3)nc3c(C4=CCNCC4)cc(Cl)cc32)cc(C)c1F [Example 304, 6-chloro-1-(4-fluoro-3,5-dimethylbenzyl)-2-(piperazin-1-yl)-4-(1,2,3,6-tetrahydropyridin-4-yl)-1H-benzo[d]imidazole] | < 1 µM | < 0.5 µM
7 | COc1ccc(-c2nc(C)cc3c2nc(N2CCNCC2)n3Cc2ccc(F)c(C)c2)cc1OC [Example 230, 4-(3,4-dimethoxyphenyl)-1-(4-fluoro-3-methylbenzyl)-6-methyl-2-(piperazin-1-yl)-1H-imidazo[4,5-c]pyridine] | 5 to 30 µM | > 5 µM
8 | CCC[C@H](N)c1cccc2c1nc(N1CCNCC1)n2Cc1ccc(F)c(Cl)c1 [Example 165, (S)-1-(1-(3-chloro-4-fluorobenzyl)-2-(piperazin-1-yl)-1H-benzo[d]imidazol-4-yl)butan-1-amine trifluoroacetate] | 1 to 5 µM | 1 to 5 µM
9 | Cc1cc2c(nc(N3CCNCC3)n2Cc2ccc(F)c(Cl)c2)c(-c2ccnn2-c2ccccc2)c1C [Example 171, 1-(3-chloro-4-fluorobenzyl)-5,6-dimethyl-4-(1-phenyl-1H-pyrazol-5-yl)-2-(piperazin-1-yl)-1H-benzo[d]imidazole trifluoroacetate] | 1 to 5 µM | 1 to 5 µM
10 | Cc1cc2nc(NCCN)n(Cc3ccc(Cl)cc3)c2cc1C [Example 20, N^1-(1-(4-chlorobenzyl)-5,6-dimethyl-1H-benzo[d]imidazol-2-yl)ethane-1,2-diamine trifluoroacetate] | 5 to 30 µM | > 5 µM
11 | Cc1cc2nc(NCCN3CCOCC3)n(Cc3cc(F)cc(F)c3)c2cc1C [Example 31, 1-(3,5-difluorobenzyl)-5,6-dimethyl-N-(2-morpholinoethyl)-1H-benzo[d]imidazol-2-amine trifluoroacetate] | 5 to 30 µM | > 5 µM
12 | Cc1cc2c(nc(N3CCNCC3)n2Cc2ccc(F)c(C)c2)c(Cl)n1 [Example 218, 4-chloro-1-(4-fluoro-3-methylbenzyl)-6-methyl-2-(piperazin-1-yl)-1H-imidazo[4,5-c]pyridine] | 5 to 30 µM | > 5 µM
13 | Cc1cc(-c2ccc(CN)cc2)c2nc(N3CCNCC3)n(Cc3cc(C)c(F)c(C)c3)c2c1 [Example 318, (4-(1-(4-fluoro-3,5-dimethylbenzyl)-6-methyl-2-(piperazin-1-yl)-1H-benzo[d]imidazol-4-yl)phenyl)methanamine] | < 1 µM | < 0.5 µM
14 | CCN(CC)Cc1cc(Cl)cc2c1nc(N1CCNCC1)n2Cc1ccc(F)c(Cl)c1 [Example 136, N-((6-chloro-1-(3-chloro-4-fluorobenzyl)-2-(piperazin-1-yl)-1H-benzo[d]imidazol-4-yl)methyl)-N-ethylethanamine trifluoroacetate] | < 1 µM | 1 to 5 µM
15 | Cc1cc2nc(NCC3CNC3)n(Cc3ccc(F)c(Cl)c3)c2cc1C [Example 291, N-(azetidin-3-ylmethyl)-1-(3-chloro-4-fluorobenzyl)-5,6-dimethyl-1H-benzo[d]imidazol-2-amine] | < 1 µM | 1 to 5 µM
16 | Cc1cc(Cn2c(NCCN)nc3c(N4CCN(C)CC4)cc(Cl)cc32)cc(C)c1F [Example 300, N^1-(6-chloro-1-(4-fluoro-3,5-dimethylbenzyl)-4-(4-methylpiperazin-1-yl)-1H-benzo[d]imidazol-2-yl)ethane-1,2-diamine] | < 1 µM | < 0.5 µM
17 | Cc1cc(Cn2c(N3CCNCC3)nc3c(N4CCC(N)CC4)cc(Cl)cc32)cc(C)c1F [Example 319, 1-(6-chloro-1-(4-fluoro-3,5-dimethylbenzyl)-2-(piperazin-1-yl)-1H-benzo[d]imidazol-4-yl)piperidin-4-amine] | < 1 µM | < 0.5 µM
18 | Cc1cc2nc(N3CCN(C)CC3)n(Cc3ccc(F)cc3)c2cc1C [Example 24, 1-(4-fluorobenzyl)-5,6-dimethyl-2-(4-methylpiperazin-1-yl)-1H-benzo[d]imidazole trifluoroacetate] | 1 to 5 µM | > 5 µM
19 | Cc1cc2c(cc1Br)nc(N1CCNCC1)n2Cc1ccc(F)c(Cl)c1 [Example 70, 5-bromo-1-(3-chloro-4-fluorobenzyl)-6-methyl-2-(piperazin-1-yl)-1H-benzo[d]imidazole trifluoroacetate] | 1 to 5 µM | 1 to 5 µM
20 | Cc1cc(N(C)CCN(C)C)c2nc(N3CCNCC3)n(Cc3cc(C)c(F)c(C)c3)c2c1 [Example 191, N^1-(1-(4-fluoro-3,5-dimethylbenzyl)-6-methyl-2-(piperazin-1-yl)-1H-benzo[d]imidazol-4-yl)-N^1,N^2,N^2-trimethylethane-1,2-diamine trifluoroacetate] | 1 to 5 µM | 0.5 to 1 µM
21 | Cc1cc(Cn2c(N3CCNCC3)nc3c(-c4ccccc4C#Cc4ccccc4)cc(Cl)cc32)cc(C)c1F [Example 182, 6-chloro-1-(4-fluoro-3,5-dimethylbenzyl)-4-(2-(phenylethynyl)phenyl)-2-(piperazin-1-yl)-1H-benzo[d]imidazole trifluoroacetate] | 1 to 5 µM | > 5 µM
22 | Cc1cc2c(nc(N3CCNCC3)n2Cc2ccc(F)c(C)c2)c(-c2ccccc2F)n1 [Example 217, 1-(4-fluoro-3-methylbenzyl)-4-(2-fluorophenyl)-6-methyl-2-(piperazin-1-yl)-1H-imidazo[4,5-c]pyridine] | 1 to 5 µM | > 5 µM
23 | Cc1cc2nc(NCCN)n(Cc3ccc(F)cc3)c2cc1C [Example 22, N^1-(1-(4-fluorobenzyl)-5,6-dimethyl-1H-benzo[d]imidazol-2-yl)ethane-1,2-diamine trifluoroacetate] | 5 to 30 µM | > 5 µM
24 | Cc1cnc2nc(NC3CCNC3)n(Cc3ccc(F)c(Cl)c3)c2c1 (stereo not drawn) [Example 247, 1-(3-chloro-4-fluorobenzyl)-6-methyl-N-(pyrrolidin-3-yl)-1H-imidazo[4,5-b]pyridin-2-amine] | 1 to 5 µM | 1 to 5 µM
